Data taken from patent US5376643A, “Composition for application to hair” (priority 1986, dated 1994).
Read-outs that look alike come from different tables or passages of the source. Each block holds one compound with its values, some of them ahead of it.

Legend:
grayed hair [1] = experiment: Half-Head technique: preventing graying of the hair and restoring grayed hair to its natural color (Example 1 procedure); type: in vivo, human (men and women); details: for effect of preventing graying and restoring grayed hair, compared with Example 2 / amount of grayed hair / effect of preventing graying of the hair and restoring grayed hair to its natural color / effect of preventing graying and restoring grayed hair / effect on graying, compared with Example 12: in words; for effect of preventing graying and restoring grayed hair, compared with Example 2: hair cream, used instead of N^6,O^2'-DScAMP-Na; for Comp. Sample is better / Comp. Sample is somewhat better / Same / This Invention is better / This Invention is somewhat better: 3 months; for amount of grayed hair / effect of preventing graying of the hair and restoring grayed hair to its natural color: compared with comparative sample free from the component; for effect of preventing graying and restoring grayed hair: hair tonic; for effect on graying, compared with Example 12: hair tonics, used in place of FAD-2Na
From the text: The effectiveness of the hair tonics thus prepared were estimated in the following manner: Twenty statistically equivalent persons (comprising men and women aged 30 to 60 years) were selected and Samples of the hair tonics were applied to their scalps in accordance with the Half-Head technique, in which Samples were separately applied to the right and left half portions of the scalp, twice a day (in the morning and at night) for three months. The effects of preventing graying of the hair and restoring grayed hair to its natural color were estimated by comparing the conditions of the portions observed before and after the application of Samples.

grayed hair [2] = experiment: Half-Head technique, two groups of 20 persons: preventing graying of the hair and restoring grayed hair (Example 6 procedure); type: in vivo, human (men and women); details: in words; hair creams
From the text: Two groups each of which comprised 20 persons (50 to 60 years old; comprising men and women) were selected and the hair tonic Samples (S-I and S-II) were separately applied to scalp of each person of one group in accordance with Half-Head technique wherein the hair tonics I and II were separately applied to the right half of the scalp and the left half thereof, on the other hand Samples (S-II and S-III) were likewise separately applied to each person of the other group in the same manner twice a day (in the morning and at night) for 3 months.

[3] = Safety examination (overall, in words); details: same procedures as in Example 1
guinea pig [4] = experiment: Phototoxicity (guinea pig); type: in vivo
human = details: in vivo
guinea pig [5] = details: in vivo
guinea pig [6] = experiment: Photosensitization (guinea pig); type: in vivo
rabbit = details: in vivo
scalp [7] = details: in vivo
From the text: (§1) Twenty statistically equivalent persons (comprising men and women aged 30 to 60 years) were selected and Samples of the hair tonics were applied to their scalps in accordance with the Half-Head technique, in which Samples were separately applied to the right and left half portions of the scalp, twice a day (in the morning and at night) for three months. The effects of preventing graying of the hair and restoring grayed hair to its natural color were estimated by comparing the conditions of the portions observed before and after the application of Samples.

[8] = Acute Oral Toxicity (rat); details: in vivo
[9] = in vivo
guinea pig [10] = experiment: Skin Sensitization (guinea pig); type: in vivo
scalp [11] = experiment: Condition of the scalp during and after use for 3 months
From the text: as §1

[12] = in words; cited from earlier work
[13] = in words; cited from earlier work; remark: listed apart in the source
[14] = Table XXV, hair tonic with 0.1% vs tonic without
[15] = Table III, of 20 persons, hair tonic with 0.05% vs tonic without, twice a day
[16] = Table X, hair cream with 0.8% vs cream without
[17] = Table VIII, milky lotion with 0.2% vs lotion without

Structure (SMILES): Nc1ncnc2c1nc(Br)n2[C@@H]1O[C@@H]2COP(=O)(O)O[C@H]2[C@H]1O [8-BrcAMP-Na]
effect of preventing graying and restoring grayed hair, compared with Example 2 (grayed hair [1]): Substantially the same excellent effect as in Example 2

Structure (SMILES): Nc1ncnc2c1nc(Sc1ccc(Cl)cc1)n2[C@@H]1O[C@@H]2COP(=O)(O)O[C@H]2[C@H]1O [8-C1PhScAMP-Na]
effect of preventing graying and restoring grayed hair, compared with Example 2 (grayed hair [1]): Substantially the same excellent effect as in Example 2

Structure (SMILES): Nc1ncnc2c1nc(Cl)n2[C@@H]1O[C@@H]2COP(=O)(O)O[C@H]2[C@H]1O [8-ClcAMP-Na]
effect of preventing graying and restoring grayed hair, compared with Example 2 (grayed hair [1]): Substantially the same excellent effect as in Example 2

Structure (SMILES): Nc1ncnc2c1nc(O)n2[C@@H]1O[C@@H]2COP(=O)(O)O[C@H]2[C@H]1O [8-OHcAMP-Na]
effect of preventing graying and restoring grayed hair, compared with Example 2 (grayed hair [1]): Substantially the same excellent effect as in Example 2

Structure (SMILES): Nc1ncnc2c1nc(S)n2[C@@H]1O[C@@H]2COP(=O)(O)O[C@H]2[C@H]1O [8-SHcAMP-Na]
effect of preventing graying and restoring grayed hair, compared with Example 2 (grayed hair [1]): Substantially the same excellent effect as in Example 2

Structure (SMILES): Cc1cc2nc3c(=O)[nH]c(=O)nc-3n(C[C@H](O)[C@H](O)[C@H](O)COP(=O)(O)OP(=O)(O)OC[C@H]3O[C@@H](n4cnc5c(N)ncnc54)[C@H](O)[C@@H]3O)c2cc1C [FAD, flavin adenine dinucleotide]
effect on graying, compared with Example 7 (grayed hair [2]): approximately the same results as those in Example 7

Structure (SMILES): Cc1cc2nc3c(=O)[nH]c(=O)nc-3n(C[C@H](O)[C@H](O)[C@H](O)COP(=O)(O)OP(=O)(O)OC[C@H]3O[C@@H](n4cnc5c(N)ncnc54)[C@H](O)[C@@H]3O)c2cc1C [FAD-2Na]
safety [3]: had no problems such as skin irritation and thus had extremely high safety | Comp. Sample is better (grayed hair [1]; [14]): 0 | Comp. Sample is somewhat better (grayed hair [1]; [14]): 0 | Same (grayed hair [1]; [14]): 4 | This Invention is better (grayed hair [1]; [14]): 8 | This Invention is somewhat better (grayed hair [1]; [14]): 8

Structure (SMILES): CC(=O)Nc1ncnc2c1nc(N)n2C1OC2COP(=O)([O-])OC2C1OC(C)=O.[Na+] (stereo not drawn) [N^6,O^2'-DA-8-NH2 cAMP-Na]
effect of preventing graying and restoring grayed hair, compared with Example 2 (grayed hair [1]): Substantially the same excellent effect as in Example 2

Structure (SMILES): CCCC(=O)Nc1ncnc2c1ncn2[C@@H]1O[C@@H]2COP(=O)(O)O[C@H]2[C@H]1OC(=O)CCC [N^6,O^2'-DBcAMP-Na]
Phototoxicity (guinea pig [4]): negative | Human Patch Test (human): non-irritant | Primary Skin Irritation (guinea pig [5]): non-irritant | Photosensitization (guinea pig [6]): negative | Ocular-mucous Membrane Irritation (rabbit): non-irritant | abnormality in the condition of the scalp (scalp [7]): No abnormality was observed | LD50 [8]: ≥ 5000 mg/kg | Comp. Sample is better (grayed hair [1]; [15]): 0 | Comp. Sample is somewhat better (grayed hair [1]; [15]): 0 | Same (grayed hair [1]; [15]): 2 | This Invention is better (grayed hair [1]; [15]): 11 | This Invention is somewhat better (grayed hair [1]; [15]): 7 | amount of grayed hair (grayed hair [1]): reduced the amount of grayed hair more effectively than the comparative hair tonic | effect of preventing graying of the hair and restoring grayed hair to its natural color (grayed hair [1]): remarkable effect | effect of preventing graying and restoring grayed hair (grayed hair [1]; amount of 0.005%): little effect | effect of preventing graying and restoring grayed hair (grayed hair [1]; amount of 0.01): effective | safety [9]: extremely high | Skin Sensitization (guinea pig [10]): negative

abnormality in the condition of the scalp (scalp [11]): no abnormality was observed
Structure (SMILES): CCCC(=O)Nc1ncnc2c1ncn2[C@@H]1O[C@@H]2COP(=O)(O)O[C@H]2[C@H]1O [N^6-MBcAMP-Na]
safety [3]: had no problems such as skin irritation and thus had extremely high safety | Comp. Sample is better (grayed hair [1]; [16]): 0 | Comp. Sample is somewhat better (grayed hair [1]; [16]): 0 | Same (grayed hair [1]; [16]): 4 | This Invention is better (grayed hair [1]; [16]): 9 | This Invention is somewhat better (grayed hair [1]; [16]): 7 | amount of grayed hair (grayed hair [1]): the amount of grayed hair was reduced | effect of preventing graying of the hair and restoring grayed hair to its natural color (grayed hair [1]): excellent effect

Structure (SMILES): CCCCCC(=O)Nc1ncnc2c1ncn2C1OC2COP(=O)([O-])OC2C1O.[Na+] (stereo not drawn) [N^6-MHcAMP-Na]
effect on graying, compared with Example 12 (grayed hair [1]): substantially the same effect as in Example 12

Structure (SMILES): CCCC(=O)O[C@@H]1[C@@H]2OP(=O)(O)OC[C@H]2O[C@H]1n1cnc2c(N)ncnc21 [O^2 -MBcAMP-Na]
effect on graying, compared with Example 7 (grayed hair [2]): approximately the same results as those in Example 7

Structure (SMILES): CCCC(=O)O[C@@H]1[C@@H]2OP(=O)(O)OC[C@H]2O[C@H]1n1c(Br)nc2c(N)ncnc21 [O^2'-MB-8BrcAMP-Na]
effect of preventing graying and restoring grayed hair, compared with Example 2 (grayed hair [1]): Substantially the same excellent effect as in Example 2

Structure (SMILES): CCCCCCCC(=O)OC1C2OP(=O)([O-])OCC2OC1n1cnc2c(N)ncnc21.[Na+] (stereo not drawn) [O^2'-MOcAMP-Na]
effect on graying, compared with Example 12 (grayed hair [1]): substantially the same effect as in Example 12

abnormality in the condition of the scalp (scalp [11]): no abnormality was observed
Structure (SMILES): Nc1ncnc2c1ncn2[C@@H]1O[C@@H]2COP(=O)([O-])O[C@H]2[C@H]1OC(=O)CCC(=O)O.[Na+] [O^2'-MScAMP-Na]
safety [3]: had no problems such as skin irritation and thus had extremely high safety | Comp. Sample is better (grayed hair [1]; [17]): 0 | Comp. Sample is somewhat better (grayed hair [1]; [17]): 0 | Same (grayed hair [1]; [17]): 3 | This Invention is better (grayed hair [1]; [17]): 10 | This Invention is somewhat better (grayed hair [1]; [17]): 7 | amount of grayed hair (grayed hair [1]): the amount of grayed hair was reduced | effect of preventing graying of the hair and restoring grayed hair to its natural color (grayed hair [1]): excellent effect

Structure (SMILES): CCCCCCCCC(=O)O [nonanoic acid]
effect on graying, compared with Example 7 (grayed hair [2]): approximately the same results as in Example 7

Structure (SMILES): CCCCCCCCCCCOCC(COCCCCCCCCCCC)OCCCCCCCCCCC [triundecyl glycerylether]
effect on graying, compared with Example 7 (grayed hair [2]): approximately the same results as in Example 7

Structure (SMILES): C=C1CC[C@H](O)C/C1=C/C=C1\CCC[C@]2(C)[C@@H]([C@H](C)CCCC(C)C)CC[C@@H]12 [vitamin D3]
side-effects [12]: tend to cause side-effectssuch as hypervitaminosis D or hypercalcemia | stability in the air [13]: extremely unstable in the air and easily undergo oxidation
